Reference: patent US9029377B2, “Platelet-activating factor receptor antagonists” (Merck Sharp & Dohme Corp., priority 2009, dated 2015)
pIC50: −log10 of the molar value.

Molecular target: PAFR (Homo sapiens, UniProt P25105)
Experiment: PAF Binding Assay (PAFR binding)

PAFR, sequence (P25105 whole entry): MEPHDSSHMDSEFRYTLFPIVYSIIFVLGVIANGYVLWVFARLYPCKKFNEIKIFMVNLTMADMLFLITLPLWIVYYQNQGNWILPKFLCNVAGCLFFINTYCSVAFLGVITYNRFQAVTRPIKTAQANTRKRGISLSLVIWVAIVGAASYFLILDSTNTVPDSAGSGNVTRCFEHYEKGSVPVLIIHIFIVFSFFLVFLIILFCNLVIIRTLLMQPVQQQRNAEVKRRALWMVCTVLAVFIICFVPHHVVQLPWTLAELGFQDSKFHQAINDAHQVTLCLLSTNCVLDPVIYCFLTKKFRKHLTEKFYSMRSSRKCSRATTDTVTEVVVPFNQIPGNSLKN

| Compound | pIC50 |
| --- | --- |
| CCc1cc(-c2cnc3ccnn3c2)cc(S(=O)(=O)N[C@H]2CCC[C@@H](n3cnnc3)C2)c1 [Compound 3Bax, 3-ethyl-5-pyrazolo[1,5-a]pyrimidin-6-yl-N-[(1S,3R)-3-(4H-1,2,4-triazol-4-yl)cyclohexyl]benzenesulfonamide] | 7.66 |
| O=S(=O)(N[C@H]1CCC[C@@H](n2cnnc2)C1)c1cc(-c2cccc3cnccc23)cc(C(F)(F)F)c1 [Compound 3Az, 3-isoquinolin-5-yl-N-[(1S,3R)-3-(4H-1,2,4-triazol-4-yl)cyclohexyl]-5-(trifluoromethyl)benzenesulfonamide] | 8.00 |
| O=S(=O)(N[C@H]1CCC[C@@H](n2cnnc2)C1)c1c(F)cc(-c2noc(C3CC3)n2)cc1C1CC1 [Compound 2Sa, 2-cyclopropyl-4-(5-cyclopropyl-1,2,4-oxadiazol-3-yl)-6-fluoro-N-[(1S,3R)-3-(4H-1,2,4-triazol-4-yl)cyclohexyl]benzenesulfonamide] | 8.07 |
| O=S(=O)(N[C@H]1CCC[C@@H](n2cnnc2)C1)c1cc(-c2ccc(C(F)(F)F)cc2)cc(C(F)(F)F)c1 [Compound 3Al, N-[(1S,3R)-3-(4H-1,2,4-triazol-4-yl)cyclohexyl]-4′,5-bis(trifluoromethyl)biphenyl-3-sulfonamide] | 8.09 |
| CCc1cc(-c2ccc(OC(F)F)cc2)ccc1S(=O)(=O)N[C@H]1CCC[C@@H](n2cnnc2)C1 [Compound 2Ay, 4′-(difluoromethoxy)-3-ethyl-N-[(1S,3R)-3-(4H-1,2,4-triazol-4-yl)cyclohexyl]biphenyl-4-sulfonamide] | 8.60 |
| 3-isoxazol-5-yl-N-[(1R,5S)-3,3-difluoro-5-(3-methyl-4H-1,2,4-triazol-4-yl)cyclohexyl]-5-(trifluoromethyl)benzenesulfonamide [Compound 9Ad] | 7.47 |
| CCc1cc(-c2ccc(OC)c(F)c2)ccc1S(=O)(=O)N[C@H]1CCC[C@@H](n2cnnc2)C1 [Compound 2At, 3-ethyl-3′-fluoro-4′-methoxy-N-[(1S,3R)-3-(4H-1,2,4-triazol-4-yl)cyclohexyl]biphenyl-4-sulfonamide] | 7.41 |
| CCCCOc1ccc(S(=O)(=O)N[C@@H]2C[C@H](n3cnnc3C)CC(F)(F)C2)cc1F [Compound 2Hj, 4-butoxy-N-[(1R,5S)-3,3-difluoro-5-(3-methyl-4H-1,2,4-triazol-4-yl)cyclohexyl]-3-fluorobenzenesulfonamide] | 8.44 |
| O=S(=O)(N[C@H]1CCC[C@@H](n2cnnc2)C1)c1c(C2CC2)cc(-c2noc(C3CC3)n2)cc1C1CC1 [Compound 2Ra, 2,6-dicyclopropyl-4-(5-cyclopropyl-1,2,4-oxadiazol-3-yl)-N-[(1S,3R)-3-(4H-1,2,4-triazol-4-yl)cyclohexyl]benzenesulfonamide] | 8.62 |
| COc1ccc(-c2cc(C(F)(F)F)cc(S(=O)(=O)N[C@H]3CCC[C@@H](n4cnnc4)C3)c2)cn1 [Compound 3Af, 3-(6-methoxypyridin-3-yl)-N-[(1S,3R)-3-(4H-1,2,4-triazol-4-yl)cyclohexyl]-5-(trifluoromethyl)benzenesulfonamide] | 8.38 |
| O=S(=O)(N[C@H]1CCC[C@@H](n2cnnc2)C1)c1cc(-c2ccc3nc(C4CC4)nn3c2)cc(C(F)(F)F)c1 [Compound 3Aaq, 3-(2-cyclopropyl[1,2,4]triazolo[1,5-a]pyridin-6-yl)-N-[(1S,3R)-3-(4H-1,2,4-triazol-4-yl)cyclohexyl]-5-(trifluoromethyl)benzenesulfonamide] | 7.70 |
| CCc1cc(-c2ccc(OC)cc2)ccc1S(=O)(=O)N[C@H]1CCC[C@@H](n2cnnc2)C1 [Compound 2Ap, 3-ethyl-4′-methoxy-N-[(1S,3R)-3-(4H-1,2,4-triazol-4-yl)cyclohexyl]biphenyl-4-sulfonamide] | 7.57 |
| CCc1cc(-c2ccc(OC(F)(F)F)c(F)c2)ccc1S(=O)(=O)N[C@H]1CCC[C@@H](n2cnnc2C)C1 [Compound 2Abf, 3-ethyl-3′-fluoro-N-[(1S,3R)-3-(3-methyl-4H-1,2,4-triazol-4-yl)cyclohexyl]-4′-(trifluoromethoxy)biphenyl-4-sulfonamide] | 8.57 |
| CCc1cc(OCCCC(F)(F)F)ccc1S(=O)(=O)N[C@H]1CCC[C@@H](n2cnnc2C)C1 [Compound 2Abj, 2-ethyl-N-[(1S,3R)-3-(3-methyl-4H-1,2,4-triazol-4-yl)cyclohexyl]-4-(4,4,4-trifluorobutoxy)benzenesulfonamide] | 8.57 |
| O=S(=O)(N[C@H]1CCC[C@@H](n2cnnc2)C1)c1cc(-c2cccnc2)cc(C(F)(F)F)c1 [Compound 3Ar, 3-pyridin-3-yl-N-[(1S,3R)-3-(4H-1,2,4-triazol-4-yl)cyclohexyl]-5-(trifluoromethyl)benzenesulfonamide] | 7.49 |
| CCc1cc(-c2ccc(OCC(F)(F)F)nc2)ccc1S(=O)(=O)N[C@H]1CCC[C@@H](n2cnnc2)C1 [Compound 2Aak, 2-ethyl-N-[(1S,3R)-3-(4H-1,2,4-triazol-4-yl)cyclohexyl]-4-[6-(2,2,2-trifluoroethoxy)pyridin-3-yl]benzenesulfonamide] | 9.15 |
| O=S(=O)(N[C@H]1CCC[C@@H](n2cnnc2)C1)c1cc(-c2ccc3nc(C(F)(F)F)cn3n2)cc(C(F)(F)F)c1 [Compound 3Aaj, N-[(1S,3R)-3-(4H-1,2,4-triazol-4-yl)cyclohexyl]-3-(trifluoromethyl)-5-[2-(trifluoromethyl)imidazo[1,2-b]pyridazin-6-yl]benzenesulfonamide] | 7.57 |
| CC(C)Oc1ccc(-c2ccc(S(=O)(=O)N[C@@H]3C[C@H](n4cnnc4)CC(F)(F)C3)cc2F)cc1 [Compound 2Gd, N-[(1R,5S)-3,3-difluoro-5-(4H-1,2,4-triazol-4-yl)cyclohexyl]-2-fluoro-4′-isopropoxybiphenyl-4-sulfonamide] | 8.14 |
| CCCCOc1ccc(S(=O)(=O)N[C@H]2CCC[C@@H](n3cnnc3C3CC3)C2)cc1F [Compound 2Oaf, 4-butoxy-N-[(1S,3R)-3-(3-cyclopropyl-4H-1,2,4-triazol-4-yl)cyclohexyl]-3-fluorobenzenesulfonamide] | 8.77 |
| CCc1cc(-c2ncc(COC)s2)ccc1S(=O)(=O)N[C@H]1CCC[C@@H](n2cnnc2)C1 [Compound 2Aba, 2-ethyl-4-[5-(methoxymethyl)-1,3-thiazol-2-yl]-N-[(1S,3R)-3-(4H-1,2,4-triazol-4-yl)cyclohexyl]benzenesulfonamide] | 7.39 |
| O=S(=O)(N[C@H]1CCC[C@@H](n2cnnc2)C1)c1cc(-c2cccc3ccsc23)cc(C(F)(F)F)c1 [Compound 3Aq, 3-(1-benzothien-7-yl)-N-[(1S,3R)-3-(4H-1,2,4-triazol-4-yl)cyclohexyl]-5-(trifluoromethyl)benzenesulfonamide] | 8.15 |

The remaining compounds from weak to strong by pIC50, led by results:

| pIC50 | Compound |
| --- | --- |
| 6.42 | CCc1cc([N+](=O)[O-])ccc1S(=O)(=O)N[C@H]1CCC[C@@H](n2cnnc2)C1 [Compound 2Ae, 2-ethyl-4-nitro-N-[(1S,3R)-3-(4H-1,2,4-triazol-4-yl)cyclohexyl]benzenesulfonamide] |
| 7.18 | O=S(=O)(N[C@H]1CCC[C@@H](n2cnnc2)C1)c1ccc(Oc2ncc(C(F)(F)F)cc2Cl)cc1 [Compound 2Mab, 4-{[3-chloro-5-(trifluoromethyl)pyridin-2-yl]oxy}-N-[(1S,3R)-3-(4H-1,2,4-triazol-4-yl)cyclohexyl]benzenesulfonamide] |
| 7.25 | Cc1nncn1[C@@H]1CCC[C@H](NS(=O)(=O)c2ccc(-n3nccc3C3CC3)cc2)C1 [Compound 2Nr, 4-(5-cyclopropyl-1H-pyrazol-1-yl)-N-[(1S,3R)-3-(3-methyl-4H-1,2,4-triazol-4-yl)cyclohexyl]benzenesulfonamide] |
| 7.29 | O=S(=O)(N[C@H]1CCC[C@@H](n2cnnc2)C1)c1ccc(Oc2ccccc2)cc1 [Compound 2Mv, 4-phenoxy-N-[(1S,3R)-3-(4H-1,2,4-triazol-4-yl)cyclohexyl]benzenesulfonamide] |
| 7.35 | CCc1cc(-c2nccs2)ccc1S(=O)(=O)N[C@H]1CCC[C@@H](n2cnnc2)C1 [Compound 2Aaw, 2-ethyl-4-(1,3-thiazol-2-yl)-N-[(1S,3R)-3-(4H-1,2,4-triazol-4-yl)cyclohexyl]benzenesulfonamide] |
| 7.52 | CCc1cc(-c2ccc(OC(F)(F)F)cc2C)ccc1S(=O)(=O)N[C@H]1CCC[C@@H](n2cnnc2)C1 [Compound 2Abl, 3-ethyl-2′-methyl-N-[(1S,3R)-3-(4H-1,2,4-triazol-4-yl)cyclohexyl]-4′-(trifluoromethoxy)biphenyl-4-sulfonamide] |
| 7.59 | CCc1ccc(S(=O)(=O)N[C@H]2CCC[C@@H](n3cnnc3)C2)cc1-c1ccccc1 [Compound 2Mm, 6-ethyl-N-[(1S,3R)-3-(4H-1,2,4-triazol-4-yl)cyclohexyl]biphenyl-3-sulfonamide] |
| 7.82 | O=S(=O)(N[C@H]1CCC[C@@H](n2cnnc2)C1)c1cc(-c2ccnc(F)c2)cc(C(F)(F)F)c1 [Compound 3Av, 3-(2-fluoropyridin-4-yl)-N-[(1S,3R)-3-(4H-1,2,4-triazol-4-yl)cyclohexyl]-5-(trifluoromethyl)benzenesulfonamide] |
| 7.89 | CCCCCc1ccc(S(=O)(=O)N[C@H]2CCC[C@@H](n3cnnc3)C2)cc1 [Compound 2Mah, 4-pentyl-N-[(1S,3R)-3-(4H-1,2,4-triazol-4-yl)cyclohexyl]benzenesulfonamide] |
| 9.10 | CCc1cc(-c2noc(C3CC3)n2)ccc1S(=O)(=O)N[C@@H]1C[C@H](n2cnnc2C)CC(F)(F)C1 [Compound 2Cbb, 4-(5-cyclopropyl-1,2,4-oxadiazol-3-yl)-N-[(1R,5S)-3,3-difluoro-5-(3-methyl-4H-1,2,4-triazol-4-yl)cyclohexyl]-2-ethylbenzenesulfonamide] |
| 9.30 | CCc1cc(-c2ccc(OC(C)C)nc2)ccc1S(=O)(=O)N[C@H]1CCC[C@@H](n2cnnc2C)C1 [Compound 2Abc, 2-ethyl-4-(6-isopropoxypyridin-3-yl)-N-[(1S,3R)-3-(3-methyl-4H-1,2,4-triazol-4-yl)cyclohexyl]benzenesulfonamide] |
| 10.00 | O=S(=O)(N[C@H]1CCC[C@@H](n2cnnc2)C1)c1c(C2CC2)cc(-c2noc(C3CCC3)n2)cc1C1CC1 [Compound 2Rb, 4-(5-cyclobutyl-1,2,4-oxadiazol-3-yl)-2,6-dicyclopropyl-N-[(1S,3R)-3-(4H-1,2,4-triazol-4-yl)cyclohexyl]benzenesulfonamide] |
